In patent publication US12454703B2, “Controllable transcription” (Cambridge Enterprise Limited (GB/GB), priority 2016, dated 2025):

Tests used:
induced myocytes = assay: Contraction of induced skeletal myocytes; format: cell-based, human; conditions: nanomolar concentrations
[1] = test system: EGFPd2 homozygous sOPTiKO hESCs; assay: Inducible CRISPR/Cas9 knockout of EGFPd2 reporter in hESCs; format: cell-based, human
Experimental: For single site OPTIKO, AAVS1 targeting was performed by nucleofection. hESCs pre-treated for 16 h with 10 μM Y-27632 (Tocris) were dissociated to clumps of 2-8 cells using Accutase (Gibco), and 2×10^6 cells were nucleofected in 100 μl with a total of 12 μg of DNA (4 μg each for the two ZFN plasmids, and 2 μg each for the two targeting vectors) using the Lonza P3 Primary Cell 4D-Nucleofector X Kit and the cycle CA-137 on a Lonza 4D-Nucleofector System, all according to manufacturer's instructions. Nucleofected hESCs were plated onto a feeder layer of irradiated DR4 (puromycin and neomycin resistant) mouse embryonic fibroblasts and cultured in KSR media supplemented with 4 ng ml-1 FGF2 and 10 μM Y-27632 (this last only for the first 24 h). After 4 days, hPSC colonies carrying both puromycin and neomycin resistance gene were selected for 7-10 days with 25 μg ml-1 of Geneticin (G418 Sulfate, Gibco) and 0.5 μg ml-1 Puromycin. Individual clones were then picked and expanded in feeder-free conditions.
Unless otherwise described in the figure legends or Examples, tetracycline hydrochloride (sigma-Aldrich) was used at 1 μg ml^−1 to induce gene knockdown or knockout. Induction of neurons Pluripotent OPTi-NGN2 cells were dissociated into single cells with TrypLE and plated onto Matrigel (35 μg/cm^2, Scientific Laboratory Supplies) coated dishes at a density of 75.000 cells per well of a 12 well plate. […] After 2 days of induction, the medium was switched to Neurobasal-medium supplemented with Glutamax (100×), B27 (50×, Gibco), BDNF (10 ng/ml, Peprotech), NT3 (10 ng/ml, R&D Systems), Penicillin/Streptomycin (1%), and doxycycline (1 μg/ml).

Experimental for OPTi-MYOD1 hPSCs: Pluripotent OPTi-MYOD1 cells were dissociated into single cells with TrypLE and plated onto gelatine/MEF-medium coated dishes at a density of 100.000 cells per well of a 12 well plate. Forward programming was initiated 24-48 hours after the split. […] After 5 days of induction, the medium was supplemented with CHIR99021 (3 μM, Tocris) and heat-inactivated horse serum (2%, Gibco) to enhance maturation.
For analysis of EGFP expression cells were harvested with TrypLE Select (Gibco) for 5-10 minutes at 37° C. to obtain a single cell suspension. Following a wash with PBS, cells were resuspended in ice-cold PBS supplemented with DAPI (10 μg/ml), and incubated for 5 minutes on ice. Cells were analyzed using a Cyan ADP flow-cytometer to determine the levels of EGFP expression of viable cells (DAPI negative). For staining and analysis of myosin heavy chain expression cells were harvested with TrypLE Select (as for EGFP expression analysis), washed once with PBS, and fixed and permeabilized with Cytofix/Cytoperm solution (BD Biosciences). Subsequently, cells were washed and blocked in Perm/Wash buffer (BD Biosciences) supplemented with 3% bovine serum albumin (BSA) at +4° C. overnight. […] After three washes with Perm/Wash buffer cells were analyzed with a Cyan ADP flowcytometer to determine the levels of MHC expression. […]

CC1=C(/C=C/C(C)=C/C=C/C(C)=C/C(=O)O)C(C)(C)CCC1 [all-trans retinoic acid]
conversion into myogenin and myosin heavy chain (MHC) double-positive myocytes (OPTi-MYOD1 hPSCs; in conjunction with MYOD1 overexpression, by day 5 after induction): rapid and near-complete conversion
nature of the RA effect on myocyte conversion (OPTi-MYOD1 hPSCs; mediated through RA-receptor isoforms RARa and RARB): concentration dependent

C[N+](C)(C)CCOC(N)=O [carbachol]
muscle fiber contraction (induced myocytes): complete muscle fiber contraction

CN(C)[C@@H]1C(O)=C(C(N)=O)C(=O)[C@@]2(O)C(O)=C3C(=O)c4c(O)cccc4[C@@](C)(O)[C@H]3C[C@@H]12 [tetracycline]
reduction in EGFPd2 fluorescence ([1]; five days following tetracycline induction, EGFPd2 homozygous cells): 50%
knockout ([1]; optimal gRNA sequence, 2 days of induction): up to 90%
EGFPd2 homozygous cells with full loss of EGFPd2 fluorescence ([1]; prolonged treatment with tetracycline): up to 75%
knockout efficiency ([1]; simultaneous induction of three copies of the same gRNA): 95%
